Laboratory results published in patent publication US7091018B2, “Enzyme gene and its expression product” (Otsuka Pharmaceutical Co., Ltd., priority 2000, dated 2006).

Tests used:
GFAT1L = target: T1, GFAT1L (Homo sapiens, UniProt Q06210); assay: GFAT activity assay (spectrophotometric, GDH/APAD coupled): Km values and inhibition pattern of UDP-G1cNAc, GFAT1L; assay type: biochemical
T1 construct: made in house; host or cells: E. coli BL21-CodonPlus(DE3)RIL, pET23b vector; ultracentrifuged lysate supernatant, not purified
T1 sequence (Q06210 whole entry): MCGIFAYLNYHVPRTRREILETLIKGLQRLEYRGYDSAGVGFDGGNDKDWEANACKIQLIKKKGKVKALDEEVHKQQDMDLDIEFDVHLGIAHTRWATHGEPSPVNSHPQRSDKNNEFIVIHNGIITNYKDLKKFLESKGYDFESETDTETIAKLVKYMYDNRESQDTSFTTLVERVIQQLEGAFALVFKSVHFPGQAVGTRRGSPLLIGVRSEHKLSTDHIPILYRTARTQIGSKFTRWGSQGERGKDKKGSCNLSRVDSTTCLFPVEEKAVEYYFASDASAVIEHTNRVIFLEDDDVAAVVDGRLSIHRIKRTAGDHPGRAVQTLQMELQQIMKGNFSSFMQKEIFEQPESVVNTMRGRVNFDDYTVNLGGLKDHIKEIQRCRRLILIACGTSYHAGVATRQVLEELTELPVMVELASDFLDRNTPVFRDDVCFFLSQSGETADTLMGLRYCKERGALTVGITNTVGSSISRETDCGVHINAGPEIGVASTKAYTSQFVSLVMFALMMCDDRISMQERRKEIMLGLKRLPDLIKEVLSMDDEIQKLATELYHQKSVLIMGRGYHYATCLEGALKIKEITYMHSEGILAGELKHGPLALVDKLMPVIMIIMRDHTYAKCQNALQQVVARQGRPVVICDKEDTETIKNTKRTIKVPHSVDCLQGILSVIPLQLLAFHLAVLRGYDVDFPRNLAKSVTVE
Experimental: (§1) GFAT activity was determined in accordance with Marshall et al. by means of spectrophotometry using a microplate (96 wells) (Journal of Biological Chemistry, vol. 266 No. 8, 4706–4712 (1991)) in the following manner. Glutamate produced by GFAT was allowed-to react with glutamate dehydrogenase (GDH), during which a reductive reaction of coenzyme APAD into APADH proceeded simultaneously. Changes in absorbance that accompany the reduction reaction of APAD to APADH are considered to represent GFAT activity.
(§2) Briefly, an appropriately diluted solution of a lyzate of GFAT1L- or GFAT1S-introduced E. coli (50 μl) was added to a substrate solution (200 μl) containing a sodium phosphate buffer (pH=7.5; 40 mM), potassium chloride (50 mM), EDTA (1.25 mM), APAD (0.3 mM), GDH (6 U/ml), glutamine (0–6 mM), and fructose-6-phosphate (F-6-P: 0–6 mM), and the mixture was allowed to react at 37° C. for 60 minutes. The absorbance change at 365 nm associated with the reaction was measured by use of a microplate reader.
(§3) In order to study the difference in terms of enzymatic behavior between GFAT1L and GFAT1S, Km values were determined using, as substrates, glutamine and F-6-P. Km values were calculated on the basis of :S/v−S plotting and v−v/S plotting, which were made with regard to the enzyme substrate concentration (S) and activity of the enzyme (reaction rate (v)). […]

GFAT1S = target: T2, GFAT1S (Homo sapiens, UniProt Q06210); assay: GFAT activity assay (spectrophotometric, GDH/APAD coupled): Km values and inhibition pattern of UDP-G1cNAc, GFAT1S; assay type: biochemical
T2 construct: made in house; host or cells: E. coli BL21-CodonPlus(DE3)RIL, pET23b vector; ultracentrifuged lysate supernatant, not purified
T2 sequence (Q06210 1-681 isoform Q06210-2): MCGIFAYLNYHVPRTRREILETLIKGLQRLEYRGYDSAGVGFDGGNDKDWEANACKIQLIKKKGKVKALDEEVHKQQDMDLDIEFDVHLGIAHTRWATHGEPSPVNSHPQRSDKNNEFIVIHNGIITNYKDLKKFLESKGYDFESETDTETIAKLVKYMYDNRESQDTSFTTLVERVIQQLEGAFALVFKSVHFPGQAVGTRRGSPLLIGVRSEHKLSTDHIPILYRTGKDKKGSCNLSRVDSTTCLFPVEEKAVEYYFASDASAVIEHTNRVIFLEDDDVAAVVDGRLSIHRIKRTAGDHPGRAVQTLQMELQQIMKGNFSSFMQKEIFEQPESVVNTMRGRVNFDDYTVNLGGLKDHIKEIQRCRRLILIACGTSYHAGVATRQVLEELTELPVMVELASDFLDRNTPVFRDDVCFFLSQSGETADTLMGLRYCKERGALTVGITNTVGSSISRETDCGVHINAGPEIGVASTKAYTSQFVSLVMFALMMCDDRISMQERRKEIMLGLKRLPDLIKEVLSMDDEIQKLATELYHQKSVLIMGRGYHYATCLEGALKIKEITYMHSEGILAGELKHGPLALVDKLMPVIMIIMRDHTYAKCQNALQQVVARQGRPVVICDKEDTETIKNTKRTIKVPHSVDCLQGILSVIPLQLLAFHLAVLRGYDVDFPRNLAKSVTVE
Experimental: as §1, §2, §3

[1] = F-6-P as substrate, UDP-G1cNAc 30, 100 μM
[2] = glutamine as substrate, UDP-G1cNAc 10, 30, 100 μM

Inhibition pattern of UDP-G1cNAc against GFAT activity, F-6-P (GFAT1L; [1]): mixed inhibition
Inhibition pattern of UDP-G1cNAc against GFAT activity, Glutamine (GFAT1L; [2]): mixed inhibition
Inhibition pattern of UDP-G1cNAc against GFAT activity, F-6-P (GFAT1S; [1]): competitive inhibition
Inhibition pattern of UDP-G1cNAc against GFAT activity, Glutamine (GFAT1S; [2]): un-competitive inhibition
SMILES: CC(=O)N[C@H]1[C@@H](OP(=O)(O)OP(=O)(O)OC[C@H]2O[C@@H](n3ccc(=O)[nH]c3=O)[C@H](O)[C@@H]2O)O[C@H](CO)[C@@H](O)[C@@H]1O [UDP-G1cNAc, UDP-N-acetylglucosamine]
